# Results from patent US20110105554A1, “MEANS FOR TREATING MYOSIN-RELATED DISEASES” (KINARIS BIOMEDICALS GMBH, priority 2007, published 2011).
# “And” between values parts separate entries of the source, which are not always exact repeats. Equal entries are not always repeated.
# Tests used:
# Assay type in all cases: biochemical
# Dictyostelium myosin-5b = target: T1, Dictyostelium myosin-5b (Dictyostelium discoideum, UniProt P54697); test: Actin-activated ATPase activity (NADH-coupled assay), Dictyostelium myosin-5b
# T1 construct: comprising amino acids 1-698, 1-765, and 1-839 respectively; made in house
# T1 sequence (P54697 1-839): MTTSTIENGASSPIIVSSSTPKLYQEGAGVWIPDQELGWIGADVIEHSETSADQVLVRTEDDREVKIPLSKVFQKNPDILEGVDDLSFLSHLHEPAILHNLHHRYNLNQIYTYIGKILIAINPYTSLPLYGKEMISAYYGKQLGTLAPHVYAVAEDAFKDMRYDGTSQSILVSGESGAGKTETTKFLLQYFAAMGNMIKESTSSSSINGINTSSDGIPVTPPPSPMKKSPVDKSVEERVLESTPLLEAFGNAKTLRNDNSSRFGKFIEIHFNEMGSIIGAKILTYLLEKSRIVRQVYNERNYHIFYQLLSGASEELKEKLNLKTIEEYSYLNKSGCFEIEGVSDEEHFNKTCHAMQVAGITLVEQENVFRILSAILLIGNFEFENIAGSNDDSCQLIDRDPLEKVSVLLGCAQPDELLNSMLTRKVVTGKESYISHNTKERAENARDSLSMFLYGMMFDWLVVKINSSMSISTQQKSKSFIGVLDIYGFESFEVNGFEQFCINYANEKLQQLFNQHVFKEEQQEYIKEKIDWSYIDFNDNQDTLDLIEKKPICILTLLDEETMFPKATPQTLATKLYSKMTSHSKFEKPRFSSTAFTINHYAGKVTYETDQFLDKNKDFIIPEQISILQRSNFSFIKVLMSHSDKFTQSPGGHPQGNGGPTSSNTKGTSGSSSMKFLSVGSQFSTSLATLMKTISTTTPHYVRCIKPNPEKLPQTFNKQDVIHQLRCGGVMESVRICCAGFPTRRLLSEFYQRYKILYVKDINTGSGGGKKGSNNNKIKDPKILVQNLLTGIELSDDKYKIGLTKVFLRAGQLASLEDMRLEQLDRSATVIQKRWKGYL
# Experimental: (§1) Based on the structure of the myosin-2 motor domain with bound PBP, we performed molecular modeling studies to elucidate the specificity of PBP-binding to myosins from different classes. […] To test the predictions from the modeling studies, we determined actin-activated ATPase activities in the presence of 0 to 150 μM PBP with rabbit skeletal myosin-2 heavy meromyosin (HMM), myosin-5a isolated from chicken brain, and recombinant Dictyostelium myosin class-1, 2 and 5 motor-domain constructs (FIG. 9a). […] The concentrations of PBP required for half-maximal inhibition of the different myosin motors was calculated from fitting the data to hyperbolae. […] To determine the extend to which PBP impairs the coupling between the actin- and nucleotide-binding sites of myosin, we measured the ATP turn-over rates of Dictyostelium myosin-2 and myosin-5b motor domain constructs over the range from 0 to 50 μM F-actin in the absence and presence of 25 μM PBP.
# (§2) Values for the rate of maximum ATP turnover (kcat), the concentration of F-actin at which half-maximal activation is achieved (Kapp), and the apparent second order rate constant for actin binding (kcat/Kapp) were estimated from a fit of the data to a hyperbolic function. kcat/Kapp is a direct measure of the coupling efficiency between actin and nucleotide binding and can be determined from the initial slope at F-actin concentrations much smaller than Kapp. […] ATP turn-over rates of Dictyostelium myosin-2 (◯) and Dictyostelium myosin-5b (▪) at increasing F-actin concentrations in the absence (filled symbols) and presence (open symbols) of 25 μM pentabromopseudilin (FIG. 9b):
# (§3) Protein preparation. Rabbit fast skeletal muscle heavy meromyosin (HMM) was prepared as described by Kron and Spudich^9. Motor domain constructs of myosin-1E, myosin-2, and myosin-5b from Dictyostelium discoideum comprising amino acids 1-698, 1-765, and 1-839 respectively, were prepared as described previouslyl^10-12. Myosin-5a heavy meromyosin from chicken brain was provided by Dr. T. Scholz (Hannover Medical School, Germany) and F-actin was prepared as described by Lehrer and Kerwar^13.
# (§4) Steady-state kinetics. Basal and actin-activated Mg^2+-ATPase activities were measured with the NADH-coupled assay^19 in a buffer containing 25 mM HEPES, 25 mM KCl, and 4 mM MgCl2, 0.5 mM DTT at pH 7.0 in the presence of 1 mM ATP at 25° C. PBP was added to the reaction mixture in the absence of nucleotide and incubated for 20 minutes before the reaction was started by the addition of ATP. NADH oxidation was followed using the change in absorption at 340 nm in a Beckman DU-800 spectrophotometer.
# Dictyostelium myosin-2 = target: T2, Dictyostelium myosin-2 (Dictyostelium discoideum, UniProt P08799, C312Y/S249N); test: Actin-activated ATPase activity (NADH-coupled assay), Dictyostelium myosin-2
# T2 construct: comprising amino acids 1-698, 1-765, and 1-839 respectively; made in house
# T2 sequence (P08799 1-765 S249N/C312Y): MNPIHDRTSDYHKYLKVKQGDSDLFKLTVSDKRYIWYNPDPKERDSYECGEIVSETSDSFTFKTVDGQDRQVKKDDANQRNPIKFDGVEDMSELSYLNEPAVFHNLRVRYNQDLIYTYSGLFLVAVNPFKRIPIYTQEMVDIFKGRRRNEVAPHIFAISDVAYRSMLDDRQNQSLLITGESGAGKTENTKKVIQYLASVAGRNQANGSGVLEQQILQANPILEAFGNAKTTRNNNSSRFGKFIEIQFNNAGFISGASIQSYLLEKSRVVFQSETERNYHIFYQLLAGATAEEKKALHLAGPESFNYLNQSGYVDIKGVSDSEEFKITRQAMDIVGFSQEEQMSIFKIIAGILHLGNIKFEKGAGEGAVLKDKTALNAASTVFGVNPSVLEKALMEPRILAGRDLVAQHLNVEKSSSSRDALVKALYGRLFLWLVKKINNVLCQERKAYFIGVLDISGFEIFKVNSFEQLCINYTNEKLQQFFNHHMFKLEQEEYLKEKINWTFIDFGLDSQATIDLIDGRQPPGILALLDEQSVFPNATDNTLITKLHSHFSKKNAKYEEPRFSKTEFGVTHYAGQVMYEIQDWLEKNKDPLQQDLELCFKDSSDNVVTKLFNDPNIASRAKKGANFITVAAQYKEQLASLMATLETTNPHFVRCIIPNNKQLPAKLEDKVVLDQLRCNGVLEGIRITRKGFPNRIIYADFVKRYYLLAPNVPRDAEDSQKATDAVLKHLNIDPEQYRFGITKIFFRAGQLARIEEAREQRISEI
# Experimental: as §1, §2, §3, §4
# [1] = target: T3, M761 (myosin-2 motor domain from D. discoideum) (Dictyostelium discoideum, UniProt P08799, C312Y/S249N); test: Quench-flow ATP hydrolysis (Pi-burst) with M761; conditions: 50 μM PBP
# T3 construct: amino acids 3 to 761 of myosin-2 from D. discoideum; His-tag (N); made in house; host or cells: D. discoideum AX3-ORF+ cells
# T3 sequence (P08799 3-761 S249N/C312Y): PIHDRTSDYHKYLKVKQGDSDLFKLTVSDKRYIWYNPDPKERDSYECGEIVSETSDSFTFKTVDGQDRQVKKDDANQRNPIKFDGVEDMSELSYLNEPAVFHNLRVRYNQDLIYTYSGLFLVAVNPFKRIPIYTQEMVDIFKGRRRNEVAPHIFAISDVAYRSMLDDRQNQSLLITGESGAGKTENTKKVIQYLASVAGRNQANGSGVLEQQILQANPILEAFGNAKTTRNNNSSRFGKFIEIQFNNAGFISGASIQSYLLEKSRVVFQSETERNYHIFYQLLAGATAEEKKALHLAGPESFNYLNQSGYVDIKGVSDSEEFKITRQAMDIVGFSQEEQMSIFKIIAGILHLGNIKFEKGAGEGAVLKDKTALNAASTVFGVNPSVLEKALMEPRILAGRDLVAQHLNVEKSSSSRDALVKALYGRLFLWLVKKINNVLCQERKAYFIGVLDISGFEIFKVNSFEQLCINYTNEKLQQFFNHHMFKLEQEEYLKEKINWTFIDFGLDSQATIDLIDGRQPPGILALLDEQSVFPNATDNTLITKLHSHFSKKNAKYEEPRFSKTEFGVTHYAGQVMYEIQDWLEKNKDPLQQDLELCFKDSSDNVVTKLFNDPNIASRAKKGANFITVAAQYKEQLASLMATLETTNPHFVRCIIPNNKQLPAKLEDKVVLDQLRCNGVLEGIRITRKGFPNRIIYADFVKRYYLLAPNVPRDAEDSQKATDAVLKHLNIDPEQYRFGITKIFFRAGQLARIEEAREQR
# Experimental: Effect of Pentabromopseudilin on ATP binding kinetics to DdMyosin-5b and acto-DdMyosin-5b. (FIG. 10a) Fluorescence transients obtained upon mixing 1 μM DdMyosin-5b with 10 μM mantATP in the absence and presence of 5 μM, 25 μM, 50 μM and 100 μM PBP. Mant-fluorescence was excited at 365 nm and detected after passing through a KV 389 nm cut-off filter. The fluorescent signal of mantATP binding to DdMyosin-5b in the absence of PBP follows a single exponential function (upper curve). The presence of increasing concentrations of PBP lead to reduced amplitudes of the fluorescent signals that are best fit by double exponentials. (FIG. 10b) Plot of the relative amplitudes of mantATP binding to Dd Myosin-5b at different PBP concentrations. […] (FIG. 10c) Fluorescence transients of the ATP induced dissociation of pyrene-acto-DdMyosin-5b in the absence (black curve) and presence (grey curve) of 50 μM PBP. (FIG. 10d) Quench-flow experiments of the ATP hydrolysis reaction upon mixing 5 μM M761 with 25 μM ATP in the absence (solid squares) and presence (open circles) of 50 μM PBP. The Pi-burst (kburst=7.8±0.2 sin the absence and 2.5±0.1 s^−1 in the presence of PBP) was followed by a linear steady-state phase. […]
# Quench-flow Experiments. […] The relative amounts of […] and ATP were quantified using a phosphorimager (Fujix BAS1000, Fuji), the software MacBAS V 2.4, TINA V 2.09f, and Origin 7.0.
compound,measurement,setting,value
Oc1c(Br)cc(Br)cc1-c1[nH]c(Br)c(Br)c1Br [KIN-43],fold weaker coupling (kcat/Kapp),Dictyostelium myosin-5b; 25 μM PBP,26 fold
same,kcat/Kapp (apparent second order rate constant for actin binding),"Dictyostelium myosin-5b; 25 μM PBP, 0 to 50 μM F-actin, 0.32 without",12000 M⁻¹ s⁻¹
same,ATPase activity at 30 μM F-actin in the presence of inhibitor,"Dictyostelium myosin-5b; >100 μM PBP, 5.5 s^−1 without",0.05 s⁻¹
same,Ki,"Dictyostelium myosin-5b; Ki, half-maximal inhibition of actin-activated ATPase activity, 0 to 150 μM PBP, hyperbolic fit",19.3 µM and 19.1 µM
same,fold decrease in kcat,Dictyostelium myosin-5b; class-5 myosins,approximately 8 fold
same,fold increase in Kapp,Dictyostelium myosin-5b; class-5 myosins,more than 25 fold
same,Ki,Dictyostelium myosin-2,24 µM
same,fold reduction in coupling (kcat/Kapp),Dictyostelium myosin-2; 25 μM PBP,3.7 fold
same,kcat/Kapp (apparent second order rate constant for actin binding),"Dictyostelium myosin-2; 25 μM PBP, 0 to 50 μM F-actin, 0.037 without",10000 M⁻¹ s⁻¹
same,ATPase activity at 30 μM F-actin in the presence of inhibitor,"Dictyostelium myosin-2; >100 μM PBP, 0.7 s^−1 without",0.02 s⁻¹
same,Pi-burst rate kburst,"[1]; 5 μM M761, 25 μM ATP",2.5 ± 0.1 s⁻¹
same,amplitude of the burst,[1]; 0.95 in the absence,0.5
